Measured values: patent US8735620B2, “Processes for preparing (E)-styrylbenzylsulfone compounds and uses thereof for treating proliferative disorders” (priority 2008, dated 2014)
Read-outs that look alike come from different tables or passages of the source.

Legend:
[1] = test system: U87; test: Tumor cell killing, U87; type: cell-based, human; conditions: U87, GLIOBLASTOMA; read-out: Tumor cell killing (IC50) concentration
Text: (§2) Tissue Culture and Reagents: Paclitaxel was purchased from Sigma. Cell lines were purchased from ATCC. Cell lines were routinely grown in DMEM or RPM1 (CellGro) supplemented with 10% fetal bovine serum (Atlas) and 1 unit/mL penicillin-streptomycin (Gibco).

[2] = test system: BT20, DU145, H157 and DLD1 cell lines; test: In vitro cytotoxicity, four human tumor cell lines (SAR discussion); type: cell-based
Protocol: A number of tumor cell lines were tested using a dose response end point assay system. The cells were grown in either DMEM or RPMI supplemented with 10% fetal bovine serum and 1 unit/mL Penicillin-Streptomycin solution. The tumor cells were plated into 6 well dishes at a cell density of 1.0×10^5 cells/mL/well and compounds were added 24 h later at various concentrations. Cell counts were determined from duplicate wells after 96 h of treatment. The total number of viable cells was determined by trypan blue exclusion.
Following the synthesis of this group of compounds, their in vitro cytotoxicity was assessed using four different human tumor cell lines derived from human breast (BT20), prostate (DU145), lung (H157) and colorectal (DLD1) cancers. […] In a majority of the compounds described here, a methoxy group was kept constant at the 4th position on the aromatic ring of the benzyl moiety.

[3] = test system: H187; test: Tumor cell killing, H187; type: cell-based, human; conditions: H187, SCLC; read-out: Tumor cell killing (IC50) concentration
Text: as §2

[4] = test system: CEM/C2; test: Tumor cell killing, CEM/C2 (camptothecin-resistant subline); type: cell-based, human; conditions: *CEM/C2, RESISTANT LEUKEMIC (multi-drug resistant); read-out: Tumor cell killing (IC50) concentration
[5] = test system: RF48; test: Tumor cell killing, RF48; type: cell-based, human; conditions: RF48, GASTRIC; read-out: Tumor cell killing (IC50) concentration
Text: as §2

[6] = test system: MIA-PaCa2; test: Tumor cell killing, MIA-PaCa2; type: cell-based, human; conditions: MIA-PaCa2, PANCREATIC; read-out: Tumor cell killing (IC50) concentration
Text: as §2

[7] = test system: MCF-7; test: Tumor cell killing, MCF-7; type: cell-based, human; conditions: MCF-7, BREAST (ER+); read-out: Tumor cell killing (IC50) concentration
Text: as §2

[8] = test system: OV-CAR-3; test: Tumor cell killing, OV-CAR-3; type: cell-based, human; conditions: OV-CAR-3, OVARIAN; read-out: Tumor cell killing (IC50) concentration
Text: as §2

[9] = test system: H157 (human lung tumor cell line); test: Cytotoxicity assay (trypan blue exclusion, 96 h), H157; type: cell-based
Text: as §2

[10] = test system: CEM; test: Tumor cell killing, CEM; type: cell-based, human; conditions: read-out: Tumor cell killing (IC50) concentration
[11] = test system: MES-SA; test: Tumor cell killing, MES-SA (parental uterine sarcoma); type: cell-based, human; conditions: MES-SA, SARCOMA; read-out: Tumor cell killing (IC50) concentration
Protocol: (§1) A. 6aa inhibits the growth of parental (MES-SA) and Paclitaxel resistant (MES-SA/DX5) cell lines with equal efficiency. The parental uterine sarcoma cells and the MDR positive (MES-SA/DX5) cells were plated into 6 well dishes and treated with various concentrations of 6aa and Paclitaxel for 96 h. The number of viable cells from duplicate plates was determined by trypan blue exclusion. B. Soft Agar Assays. MIA-PaCa-2 cells (1.0×10^5) were plated in soft agar containing various concentrations of each compound in triplicates. After three weeks of growth, the plates were stained for 48 h using 0.05% nitroblue tetrazolium solution. Representative plates were photographed using an Olympus stereoscope mounted with a Sony digital camera system (DKC5000, Sony Inc). Tissue Culture and Reagents: […] Cell lines were purchased from ATCC. Cell lines were routinely grown in DMEM or RPM1 (CellGro) supplemented with 10% fetal bovine serum (Atlas) and 1 unit/mL penicillin-streptomycin (Gibco). A number of tumor cell lines were tested using a dose response end point assay system. The cells were grown in either DMEM or RPMI supplemented with 10% fetal bovine serum and 1 unit/mL Penicillin-Streptomycin solution. […] Cell counts were determined from duplicate wells after 96 h of treatment. The total number of viable cells was determined by trypan blue exclusion.

[12] = test system: N417; test: Tumor cell killing, N417; type: cell-based, human; conditions: N417, SCLC; read-out: Tumor cell killing (IC50) concentration
Text: as §2

[13] = test system: BT20 (human breast tumor cell line); test: Cytotoxicity assay (trypan blue exclusion, 96 h), BT20; type: cell-based; conditions: BT20, 96 h treatment
Text: as §2

[14] = test system: PC-3; test: Tumor cell killing, PC-3; type: cell-based, human; conditions: PC-3, PROSTATE (AR+); read-out: Tumor cell killing (IC50) concentration
Text: as §2

[15] = test system: SK-MEL-28; test: Tumor cell killing, SK-MEL-28; type: cell-based, human; conditions: SK-MEL-28, MELANOMA; read-out: Tumor cell killing (IC50) concentration
Text: as §2

[16] = test system: MES-SA/DX5; test: Tumor cell killing, MES-SA/DX5 (multidrug resistant subline); type: cell-based, human; conditions: for IC50: *MESSA/DX5, RESISTANT SARCOMA (multi-drug resistant), read-out: Tumor cell killing (IC50) concentration
Protocol: as §1

[17] = test system: HCT-15; test: Tumor cell killing, HCT-15; type: cell-based, human; conditions: HCT-15, COLO-RECTAL; read-out: Tumor cell killing (IC50) concentration
Text: as §2

[18] = test system: COLO-205; test: Tumor cell killing, COLO-205; type: cell-based, human; conditions: COLO-205, COLO-RECTAL; read-out: Tumor cell killing (IC50) concentration
Text: as §2

[19] = test system: panel of 60 human cancer cell-lines; test: NCI Developmental Therapeutics Program panel of 60 human cancer cell-lines; type: cell-based; conditions: at nanomolar concentrations, including drug-resistant cell-lines
[20] = test system: Raji; test: Tumor cell killing, Raji; type: cell-based, human; conditions: Burkitt's Lymphoma (B-cell), read-out: Tumor cell killing (IC50) concentration
[21] = test system: AGS; test: Tumor cell killing, AGS; type: cell-based, human; conditions: GASTRIC, read-out: Tumor cell killing (IC50) concentration
Text: as §2

[22] = test system: DLD1 (human colorectal tumor cell line); test: Cytotoxicity assay (trypan blue exclusion, 96 h), DLD1; type: cell-based
Text: as §2

[23] = test system: DU145 (human prostate tumor cell line); test: Cytotoxicity assay (trypan blue exclusion, 96 h), DU145; type: cell-based
Text: as §2

[24] = test system: Namalwa; test: Tumor cell killing, Namalwa; type: cell-based, human; conditions: Burkitt's Lymphoma (B-cell), read-out: Tumor cell killing (IC50) concentration
[25] = H157, 96 h treatment, read-out: H157 IC50
[26] = H157, NSCLC, Table 2, read-out: Tumor cell killing (IC50) concentration
[27] = LEUKEMIC (second listing, r39, parental of CEM/C2)
[28] = DLD1, 96 h treatment, read-out: DLD1 IC50
[29] = DLD-1, COLO-RECTAL, Table 2, read-out: Tumor cell killing (IC50) concentration
[30] = DU145, 96 h treatment, read-out: DU145 IC50
[31] = DU145, PROSTATE (AR−), Table 2, read-out: Tumor cell killing (IC50) concentration

Row | SMILES | IC50 [1] [nM] | IC50 [3] [nM] | IC50 [4] [nM] | IC50 [5] [nM] | IC50 [6] [nM] | IC50 [7] [nM] | IC50 [8] [nM] | IC50 [9, 25] [nM] | IC50 [9, 26] [nM] | IC50 ([10]; LEUKEMIC (first listing, r26)) [nM] | IC50 [10, 27] [nM] | IC50 [11] [nM] | IC50 [12] [nM] | IC50 [13] [nM] | IC50 [14] [nM] | IC50 [15] [nM] | IC50 [16] [nM] | IC50 [17] [nM] | IC50 [18] [nM] | growth inhibition of NCI 60 cell-line panel [19] | further results
1 | COc1cc(OC)c(/C=C/S(=O)(=O)Cc2ccc(OC)c(O)c2)c(OC)c1 [6aa, (E)-2,4,6-Trimethoxystyryl-3-Hydroxy-4-Methoxybenzyl Sulfone] | 7 | 7 | 10 | 5 | 4 | 4 | 6 | 4 | 7 | 9 | 10 | 6 | 5 | 10 | 8 | 7 | 5 | 8 | 9 | inhibited the growth of all of the tested cell lines | cytotoxic activity, SAR statement ([2]; four human tumor cell lines): best activity in the entire series; fold more active than 6s ([2]; in all four cell lines): 8 to 10 fold; sensitivity of parental and MDR positive cell lines to cell killing activity ([16]; MES-SA and MES-SA/DX5): equally sensitive; IC50 [20]: 4 nM; IC50 [21]: 7 nM; IC50 [22, 28]: 3 nM; IC50 [22, 29]: 8 nM; IC50 [23, 30]: 3 nM; IC50 [23, 31]: 7 nM; IC50 [24]: 6 nM
2 | COc1ccc(CS(=O)(=O)/C=C/c2c(OC)cc(OC)cc2OC)cc1 [6s, (E)-2,4,6-Trimethoxystyryl-4-Methoxybenzyl sulfone] | 40 | 15 | 10 | 10 | 8 | 3 | 8 | 30 | 30 | 30 | 30 | 10 | 8 | 20 | 30 | 40 | 10 | 20 | 15 | inhibited the growth of all of the tested cell lines | fold more active than 6m ([2]; cell-killing assays): 20 fold; IC50 [20]: 9 nM; IC50 [21]: 20 nM; IC50 [22, 28]: 40 nM; IC50 [22, 29]: 40 nM; IC50 [23, 30]: 25 nM; IC50 [23, 31]: 25 nM; IC50 [24]: 15 nM
